Data taken from US20150203512.
Read-outs that look alike come from different tables or passages of the source.

Conditions: rcm bond, Zhan-1B, dichloromethane, 25.0 °C

CN1C(=O)C=CCCOc2cc(F)ccc2CNC(=O)c2nc3n(c(=O)c2O)CCCCC31 (centres unmarked) showed a ring closure, yield of all isomers (from C=CCCOc1cc(F)ccc1CNC(=O)c1nc2n(c(=O)c1O)CCCCC2N(C)C(=O)C=C, 5.14 mM, 15.0 h) of 51%.

Work on CN1C(=O)C=CCCNc2cc(F)ccc2CNC(=O)c2nc3n(c(=O)c2O)CCCCC31 (centres unmarked) yielded a ring closure, yield of all isomers (from C=CCCNc1cc(F)ccc1CNC(=O)c1nc2n(c(=O)c1O)CCCCC2N(C)C(=O)C=C, 2.0 mM, 20.0 h) of 53%.

CC[C@H]1COC[C@@H]2c3nc(c(O)c(=O)n31)C(=O)NCc1ccc(F)cc1N(C)CCC=CC(=O)N2C gave a ring closure, yield of all isomers (from C=CCCN(C)c1cc(F)ccc1CNC(=O)c1nc2n(c(=O)c1O)[C@@H](CC)COC[C@H]2N(C)C(=O)C=C, 2.4 mM, 15.0 h) of 62%.

For CN1C(=O)CCCC=Cc2cc(F)ccc2CNC(=O)c2nc3n(c(=O)c2OS(C)(=O)=O)CCCCC31 (centres unmarked), the ring closure, yield of all isomers (from C=CCCCC(=O)N(C)C1CCCCn2c1nc(C(=O)NCc1ccc(F)cc1C=C)c(OS(C)(=O)=O)c2=O, 0.9 mM, 24.0 h) was 85%.

CC[C@H]1COC[C@@H]2c3nc(c(O)c(=O)n31)C(=O)NCc1ccc(F)cc1OCCC=CC(=O)N2C gave a ring closure, yield of all isomers (from C=CCCOc1cc(F)ccc1CNC(=O)c1nc2n(c(=O)c1O)[C@@H](CC)COC[C@H]2N(C)C(=O)C=C, 3.88 mM, 15.0 h) of 51%.

Work on CN1CCC=CC(=O)N(C)C2CCCCn3c2nc(c(O)c3=O)C(=O)NCc2ccc(F)cc21 (centres unmarked) yielded a ring closure, yield of all isomers (from C=CCCN(C)c1cc(F)ccc1CNC(=O)c1nc2n(c(=O)c1O)CCCCC2N(C)C(=O)C=C, 1.4 mM, 20.0 h) of 63%.

Compound CN1CC=Cc2cc(F)ccc2CNC(=O)c2nc3n(c(=O)c2OS(C)(=O)=O)CCCCC3N(C)C(=O)C1=O (centres unmarked) has a ring closure, yield of all isomers (from C=CCN(C)C(=O)C(=O)N(C)C1CCCCn2c1nc(C(=O)NCc1ccc(F)cc1C=C)c(OS(C)(=O)=O)c2=O, 2.6 mM, 60.0 h) of 67%.

With CN1C(=O)OCCCC=Cc2cc(F)ccc2CNC(=O)c2nc3n(c(=O)c2OS(C)(=O)=O)CCCCC31 (centres unmarked) the ring closure, yield of all isomers (from C=CCCCOC(=O)N(C)C1CCCCn2c1nc(C(=O)NCc1ccc(F)cc1C=C)c(OS(C)(=O)=O)c2=O, 4.25 mM, 15.0 h) was 97%.
